Results as given in ChEMBL document CHEMBL1136157, “Synthesis of 3a,4-dihydro-3H-[1]benzopyrano[4,3-c]isoxazoles, displaying combined 5-HT uptake inhibiting and alpha(2)-adrenoceptor antagonistic activities: a novel series of potential antidepressants” (Bioorg Med Chem Lett, 2003).

Target: Sodium-dependent serotonin transporter (Homo sapiens) (UniProt P31645)
Assay: In vitro binding affinity towards human serotonin transporter

Sequence of Sodium-dependent serotonin transporter (Homo sapiens) (P31645 whole entry, looked up): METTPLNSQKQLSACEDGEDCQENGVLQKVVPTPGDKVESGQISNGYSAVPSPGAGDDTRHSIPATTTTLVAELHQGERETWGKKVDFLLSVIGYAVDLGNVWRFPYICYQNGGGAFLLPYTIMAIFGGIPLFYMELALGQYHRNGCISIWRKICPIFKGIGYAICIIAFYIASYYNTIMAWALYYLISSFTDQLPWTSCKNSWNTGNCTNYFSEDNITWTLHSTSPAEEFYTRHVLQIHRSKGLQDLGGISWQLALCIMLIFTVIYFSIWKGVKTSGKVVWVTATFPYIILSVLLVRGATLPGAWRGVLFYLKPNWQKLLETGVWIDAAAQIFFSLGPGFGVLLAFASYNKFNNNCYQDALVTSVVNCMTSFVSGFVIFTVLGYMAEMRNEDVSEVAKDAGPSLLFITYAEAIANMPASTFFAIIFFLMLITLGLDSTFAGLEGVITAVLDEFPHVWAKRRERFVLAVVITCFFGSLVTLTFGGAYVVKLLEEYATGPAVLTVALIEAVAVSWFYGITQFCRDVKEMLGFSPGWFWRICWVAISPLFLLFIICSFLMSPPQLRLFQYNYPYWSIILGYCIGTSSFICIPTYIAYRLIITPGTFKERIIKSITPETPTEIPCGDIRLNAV

| Structure (SMILES) | Ki [µM] |
| --- | --- |
| COc1cc2c(cc1OC)C1=NOC(CN3CCN(Cc4cccc5ccccc45)CC3)C1CO2 (centres undefined) | 0.0039 |
| COc1cc2c(cc1OC)C1=NOC(CN3CCN(Cc4ccccc4)CC3)C1CO2 (centres undefined) | 0.158 |
| COc1cc2c(cc1OC)C1=NO[C@@H](CN3CCN(C/C=C(\C)c4ccccc4)CC3)[C@@H]1CO2 (stereo in doubt; (-)15g) | 0.01 |
| COc1cc2c(cc1OC)C1=NOC(CN3CCN(CCC(=O)c4ccccc4)CC3)C1CO2 (centres undefined) | 0.123 |
| COc1cc2c(cc1OC)C1=NOC(CN3CCN(Cc4csc5ccccc45)CC3)C1CO2 (centres undefined) | 0.0072 |
| COc1cc2c(cc1OC)C1=NOC(CN3CCN(Cc4cc5ccccc5s4)CC3)C1CO2 (centres undefined) | 0.005 |
| COc1cc2c(cc1OC)C1=NOC(CN3CCN(CC4=Cc5ccccc5C4)CC3)C1CO2 (centres undefined) | 0.0041 |
| COc1cc2c(cc1OC)C1=NO[C@@H](CN3CCN(C/C=C/c4ccccc4)CC3)[C@@H]1CO2 (stereo in doubt; (-)5) | 0.0034 |
| COc1cc2c(cc1OC)C1=NOC(CN3CCN(CCCc4ccccc4)CC3)C1CO2 (centres undefined) | 0.01 |
| COc1cc2c(cc1OC)C1=NOC(CN3CCN(C/C=C/c4ccccc4)CC3)C1CO2 (centres undefined) | 0.0083 |
| COc1ccc2c(c1)C1=NOC(CN3CCN(C/C=C/c4ccccc4)CC3)C1CO2 (centres undefined) | 0.014 |
| COc1ccc2c(c1)OCC1C2=NOC1CN1CCN(C/C=C/c2ccccc2)CC1 (centres undefined) | 0.019 |
| COc1cc2c(cc1OC)C1=NO[C@@H](CN3CCN(C/C=C/c4ccccc4)CC3)[C@@H]1CO2 (stereo in doubt; (+)5) | 0.0012 |
| COc1cc2c(cc1OC)C1=NOC(CN3CCN(C/C=C(\C)c4ccccc4)CC3)C1CO2 (centres undefined) | 0.01 |
| COc1cc2c(cc1OC)C1=NOC(CN3CCN(CCc4ccccc4)CC3)C1CO2 (centres undefined) | 0.199 |
| COc1cc2c(cc1OC)C1=NO[C@@H](CN3CCN(C/C=C\c4ccccc4)CC3)[C@@H]1CO2 | 0.035 |
| COc1cc2c(cc1OC)C1=NOC(CN3CCN(Cc4ccc5ncccc5c4)CC3)C1CO2 (centres undefined) | 0.0081 |
| COc1cc2c(cc1OC)C1=NOC(CN3CCN(Cc4cnc5ccccc5c4)CC3)C1CO2 (centres undefined) | 0.014 |
| COc1cc2c(cc1OC)C1=NO[C@@H](CN3CCN(C/C=C(\C)c4ccccc4)CC3)[C@@H]1CO2 (stereo in doubt; (+)15g) | 0.0045 |
